Source: patent publication US20060058260A1, “Combination therapy with gemcitabine and zd6126” (priority 2002, published 2006)
Where “and” joins values, the source holds several entries; their conditions need not be identical. Equal entries are not always repeated. Structures can show the parent of a compound that is named as a salt.

Tests used:
L3.6pl cells = assay: Primary pancreatic tumour growth and metastases growing orthotopically in nude mice; assay type: in vivo; conditions: gemcitabine 100 mg/kg i.p. twice weekly, ZD6126 75 mg/kg i.p. daily 5 days per week; for Liver Met: animals with liver metastases / animals in group; for Liver Met / LN Met / Peritoneal Carcinosis / Tumour Weight Average ± std dev: 25 days after tumour cell injection; for LN Met: animals with lymph node metastases / animals in group; for Incidence Pancreas: animals with pancreatic tumours / animals in group, sacrificed 25 days after tumour cell injection; for Peritoneal Carcinosis: animals with peritoneal carcinosis / animals in group; for Tumour Weight Average ± std dev: primary pancreatic tumour weight
Protocol: (§1) Model to Investigate Effects of ZD6126 and Gemcitabine Therapy on Primary Pancreatic Tumour Growth and Metastases Growing Orthotopically in Nude Mice Nude mice (n=8 to 10 per group) were treated 9 days after injection of 1×10^6 L3.6pl cells into the pancreas, with gemcitabine alone (100 mg/kg by intraperitoneal injection (i.p.) twice weekly on treatment days 2, 5, 9, 12), ZD6126 alone (75 mg/kg i.p. daily for 5 days per week on treatment days 1-5 and 8-12), or a combination of both agents ie gemcitabine (100 mg/kg i.p. twice weekly) and ZD6126 (75 mg/kg i.p. daily for 5 days per week). Thus the combination group received ZD6126 on treatment days 1-5 and 8-12 and gemcitabine on treatment days 2 and 5 and 9 and 12. On the days where both agents were given, gemcitabine was dosed at least 1 hour before ZD6126. A control group of 10 mice received intraperitoneal injections of an equivalent volume of saline according to the same treatment schedule as the combination group. The animals were sacrificed 25 days after tumour cell injection. The incidence of pancreatic tumours, liver metastases, lymph node metastases and peritoneal carcinosis was evaluated. The primary pancreatic tumour weight was measured. All macroscopically enlarged lymph nodes and liver nodules were confirmed by histopathology (H&E staining).

[1] = Body weight in the orthotopic pancreatic tumour model in nude mice; assay type: in vivo; conditions: 25 days after tumour cell injection; gemcitabine 100 mg/kg i.p. twice weekly, ZD6126 75 mg/kg i.p. daily 5 days per week
Protocol: as §1, with “Nude” for “Model to Investigate Effects of ZD6126 and Gemcitabine Therapy on Primary Pancreatic Tumour Growth and Metastases Growing Orthotopically in Nude Mice Nude”, “injection.” for “injection. The incidence of pancreatic tumours, liver metastases, lymph node metastases and peritoneal carcinosis was evaluated. The primary pancreatic tumour weight was measured. All macroscopically enlarged lymph nodes and liver nodules were confirmed by histopathology (H&E staining).”

Structure (SMILES)	Liver Met (L3.6pl cells)	LN Met (L3.6pl cells)	Incidence Pancreas (L3.6pl cells)	Peritoneal Carcinosis (L3.6pl cells)	Tumour Weight Average ± std dev (L3.6pl cells)	Tumour Weight Average ± std dev (L3.6pl cells; listed as gemcitabine) [mg]	Body Weight Average ± std dev [1] [g]
Nc1ccn([C@@H]2O[C@H](CO)[C@@H](O)C2(F)F)c(=O)n1 [Gemcitabine, 2′-deoxy-2′,2′-difluorocytidine monohydrochloride (β-isomer)]	2/10	10/10	10/10	1/10	687 ± 157 mg	687	19.1 ± 2.2
COc1cc2c(c(OC)c1OC)-c1ccc(OP(=O)(O)O)cc1[C@@H](NC(C)=O)CC2 [ZD6126, N-acetylcolchinol-O-phosphate]	1/8	2/8	8/8	0/8	541 mg and 541 ± 201 mg		18.5 ± 1.9
